# Where “and” joins values, the source holds several entries; their conditions need not be identical. Equal entries are not always repeated.
# Columns and labels:
# [1] = test system: Influenza A strain A/WSN/33 (H1N1); assay type: cell-based, Influenza A virus
# [2] = test system: MDCK-II cells; assay: Parallel residual cytotoxicity test without virus on MDCK-II assay cells (Example 6); assay type: cell-based, canine; details: after filtration, no virus, 1% LTX-7 or 0.2% Triton X-100
# Protocol: (§1) Appropriate controls were also performed.
# [3] = test system: SARS-CoV-2 isolate England/02/2020; assay type: cell-based; details: SARS-CoV-2, contact time 1 h at RT; 1% LTX-12 (w/v) in PBS or 0.2% Triton in PBS; Vero cells
# [4] = test system: Vero cells; assay: Parallel residual cytotoxicity test without virus on Vero assay cells (Example 5); assay type: cell-based, African green monkey; details: after filtration, no virus, 1% LTX-12 or 0.2% Triton
# Protocol: as §1
# [5] = test system: Lenti virus-like particle expressing VSV-G
# [6] = test system: Influenza A virus (IAV, A/WSN/33); assay type: cell-based
# [7] = test system: MDCK-II cells; assay: Parallel residual cytotoxicity test without virus on MDCK-II assay cells (Example 2); assay type: cell-based, canine; details: 1% LTX-109, after filtration, no virus
# Protocol: as §1
# [8] = test system: Respiratory Syncytial Virus (RSV); assay: TCID50 virucidal assay, LTX-109 against RSV on Hep2 cells; assay type: cell-based; details: for TCID50/ml ± SEM (average virus titre recovered): 1 h incubation, Hep2 cells
# Protocol: The experiment was performed in triplicates.
# as §1
# [9] = test system: SARS-CoV-2; assay type: cell-based
# [10] = test system: Hep2 cells; details: 0.1% LTX-109, after filtration, no virus
# Protocol: After 1 hour, the incubation was stopped by adding an excess of cold media, and the formulation was physically separated from the virus through a filter to reduce cytotoxicity on the assay cells. […] Infectious virus was quantified through a serial dilution (a series of ten-fold dilutions) on monolayers of Hep2 cells in microtitre plates (Hep2 cells are mammalian cells capable of displaying a cytopathic effect (CPE) upon viral infection). The starting solution for the serial dilution (i.e. the neat (or undiluted) solution) was obtained by re-suspending the virus that was separated via the filtration step in 1 ml of media. For each dilution of the virus in the dilution series, eight wells of the microtitre plate were tested (i.e. each dilution of virus was applied to eight separate wells, each well containing a Hep2 cell monolayer). Appropriate controls were also performed. […] The TCID50 (TCID50/ml) assay (Tissue Culture Infectious Dose 50 assay) is a type of endpoint dilution assay that is well known in the art and routinely used to quantitatively measure virus titres. TCID50/ml provides a measure of infectious units of virus/ml. “/ml” refers to/ml of the starting solution (i.e. neat/undiluted solution) mentioned above. […]
structure (smiles),measurement,setting,value
"N=C(N)NCCCC(N)C(=O)NC(Cc1ccc(-c2ccc3ccccc3c2)cc1)C(=O)NC(CCCNC(=N)N)C(=O)NCCc1ccccc1 (centres unmarked) [LTX-7, Arg-Phe(4-(2-Naphthyl))-Arg-NH—CH2—CH2-Ph]",Rounded % (reduction),"[1]; contact time 1 h, 1% LTX-7 or 0.2% Triton X-100",99.99%
same,TCID50/ml ± SEM (average virus titre recovered),"[1]; contact time 1 h at RT, 1% LTX-7 (w/v) in PBS or 0.2% Triton X-100 in PBS, MDCK-II cells",1.58E+01 TCID50/ml and 1.58E+01 ± 0.00E+00 TCID50/ml
same,Cytotoxicity on assay cells (dilution at which seen),[2],neat
"CC(C)(C)c1cc(C(C)(C)C)c2[nH]c(C(C)(C)C)c(CC(NC(=O)C(N)CCCCN)C(=O)NC(CCCCN)C(=O)NCCc3ccccc3)c2c1 (stereo not drawn) [LTX-12, Lys-Tbt-Lys-NH—CH2—CH2-Ph]",TCID50/ml ± SEM (average virus titre recovered),[3],1.58E+02 TCID50/ml and 1.58E+02 ± 0.00E+00 TCID50/ml
same,Cytotoxicity on assay cells,[4],no significant cytotoxicity
CC(C)(C)c1cc(C(C)(C)C)c2[nH]c(C(C)(C)C)c(CC(NC(=O)C(N)CCCNC(=N)N)C(=O)NC(CCCNC(=N)N)C(=O)NCCc3ccccc3)c2c1 (centres unmarked) [LTX-109],Effect on envelope of Lenti-virus-like particles (electron microscopy),[5],disrupted (or dissolved) envelope
same,TCID50/ml ± SEM (average virus titre recovered),"[6]; 1% LTX-109 (w/v) in PBS, 1 h incubation, MDCK-II cells",1.58E+01 TCID50/ml and 1.58E+01 ± 0.00E+00 TCID50/ml
same,Log (virus titre),"[6]; 1% LTX-109, 1 h",1.20 Log
same,Percentage (decrease in infectivity vs PBS control),"[6]; 1% LTX-109, 1 h",99.9% and 99.969%
same,With Filtration: cytotoxicity on assay cells (dilution up to which seen),[7],only up to the first dilution
same,TCID50/ml ± SEM (average virus titre recovered),[8]; 0.1% LTX-109 (w/v) in PBS,8.76E+01 TCID50/ml and 8.76E+01 ± 4.11E+01 TCID50/ml
same,Log (virus titre),"[8]; 0.1% LTX-109, 1 h",1.78 Log
same,Percentage (decrease in infectivity vs PBS control),"[8]; 0.1% LTX-109, 1 h",99.9% and 99.97%
same,TCID50/ml ± SEM (average virus titre recovered),[8]; 1% LTX-109 (w/v) in PBS,1.58E+02 TCID50/ml and 1.58E+02 ± 0.00E+00 TCID50/ml
same,Log (virus titre),"[8]; 1% LTX-109, 1 h",2.20 Log
same,Percentage (decrease in infectivity vs PBS control),"[8]; 1% LTX-109, 1 h",99.9% and 99.949%
same,TCID50/ml ± SEM (average virus titre recovered),"[9]; SARS-CoV-2, 1% LTX-109 (w/v) in PBS, 1 h incubation, Vero cells",1.99E+02 TCID50/ml and 1.99E+02 ± 4.11E+01 TCID50/ml
same,Log (virus titre),"[9]; SARS-CoV-2, 1% LTX-109, 1 h",2.28 Log
same,Percentage (decrease in infectivity vs PBS control),"[9]; SARS-CoV-2, 1% LTX-109, 1 h",99.99% and 99.995%
same,With Filtration: cytotoxicity on assay cells,[10],No cytotoxicity
